Target: T1, recombinant human NSD2 (Homo sapiens, UniProt O96028)
T1 construct: (amino acids 2-end); His tag (N); host or cells: Sf9 insect cells
T1 sequence (O96028 2-1365 limits assumed): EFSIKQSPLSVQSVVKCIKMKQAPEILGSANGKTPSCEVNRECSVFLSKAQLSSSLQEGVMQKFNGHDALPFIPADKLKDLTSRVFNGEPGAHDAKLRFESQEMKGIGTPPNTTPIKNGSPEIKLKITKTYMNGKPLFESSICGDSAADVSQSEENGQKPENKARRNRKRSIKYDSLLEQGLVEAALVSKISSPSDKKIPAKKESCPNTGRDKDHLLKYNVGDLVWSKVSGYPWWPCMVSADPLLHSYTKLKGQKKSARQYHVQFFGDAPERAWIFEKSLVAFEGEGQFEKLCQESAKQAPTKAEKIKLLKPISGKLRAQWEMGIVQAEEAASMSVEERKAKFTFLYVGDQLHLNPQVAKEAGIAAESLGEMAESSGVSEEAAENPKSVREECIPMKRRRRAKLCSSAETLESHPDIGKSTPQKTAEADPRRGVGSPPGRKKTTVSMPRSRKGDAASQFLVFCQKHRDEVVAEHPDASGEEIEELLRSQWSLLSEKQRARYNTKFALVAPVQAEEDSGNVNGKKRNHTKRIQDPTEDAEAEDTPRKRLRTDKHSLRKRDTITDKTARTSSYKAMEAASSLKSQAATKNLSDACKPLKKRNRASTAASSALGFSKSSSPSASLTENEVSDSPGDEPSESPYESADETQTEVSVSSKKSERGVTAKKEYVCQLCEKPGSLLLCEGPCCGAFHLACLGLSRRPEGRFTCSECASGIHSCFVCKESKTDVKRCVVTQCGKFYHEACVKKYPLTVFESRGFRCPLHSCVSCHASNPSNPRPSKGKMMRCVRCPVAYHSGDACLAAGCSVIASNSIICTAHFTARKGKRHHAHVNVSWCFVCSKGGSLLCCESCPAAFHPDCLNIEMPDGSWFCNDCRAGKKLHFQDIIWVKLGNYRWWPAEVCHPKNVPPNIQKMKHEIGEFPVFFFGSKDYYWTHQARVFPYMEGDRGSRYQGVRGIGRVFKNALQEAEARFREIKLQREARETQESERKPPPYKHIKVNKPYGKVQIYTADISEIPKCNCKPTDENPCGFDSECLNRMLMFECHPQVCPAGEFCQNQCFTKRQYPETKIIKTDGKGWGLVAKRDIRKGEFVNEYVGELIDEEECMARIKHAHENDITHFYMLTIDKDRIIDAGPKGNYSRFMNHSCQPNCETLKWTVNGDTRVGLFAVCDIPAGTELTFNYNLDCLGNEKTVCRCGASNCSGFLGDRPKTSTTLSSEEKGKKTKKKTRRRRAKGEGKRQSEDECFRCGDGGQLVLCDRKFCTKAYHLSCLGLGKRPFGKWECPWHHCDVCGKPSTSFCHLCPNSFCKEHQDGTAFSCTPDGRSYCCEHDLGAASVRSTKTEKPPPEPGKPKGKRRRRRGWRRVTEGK
Assay: NSD2 inhibition assay (3H-SAM histone methyltransferase, oligonucleosome substrate)
Assay type: biochemical
Conditions: recombinant human NSD2 (aa 2-end, His tag) 2 nM, chicken oligonucleosomes 0.05 mg/ml, 3H-SAM 1 μM, 1 hour at 30° C.
Description: The NSDS2 inhibitory activity of a compound can be evaluated using a NSD2 inhibition assay, such as the NSD2 inhibition assay described herein below.
A reaction mixture can be prepared by adding oligonucleosomes from Chicken (0.05 mg/ml) to freshly prepared reaction buffer containing 50 mM Tris-HCl (pH 8.5), 50 mM NaCl, 5 mM MgCl2, 0.01% Brij35, 1 mM DTT, and 1% DMSO followed by the addition of recombinant human NSD2, (amino acids 2-end) with N-terminal His tag (2 nM; GenBank Accession No. NM_001042424; MW=155.5 kDa; expressed in Sf9 insect cells) and gentle mixing. The test compound is diluted in DMSO, added to the reaction mixture in nanoliter amounts (using, e.g., Acoustic Technology (Echo 550, LabCyte Inc. Sunnyvale, CA)) and incubated for 20 minutes at room temperature. The reaction may be initiated by addition of S-Adenosyl-L-[methyl-3H]methionine (3H-SAM; 1 μM), and the mixture is then incubated for 1 hour at 30° C. The reaction mixture can be delivered to filter paper and the methylated substrate quantified by scintillation counting. Data analysis may be performed using Excel and GraphPad Prism software for IC50 curve fits. For additional information on the histone methyltransferase assay, see, for example, Horiuchi K Y, et al., “Assay Development for Histone Methyltransferases,” Assay Drug Dev Technol. 2013 May; 11(4):227-36.

IC50: < 10 nM
SMILES: [2H]C([2H])([2H])Oc1cc(F)c(-c2cc(Cn3cnc4c(N)ncnc43)c(N3CCC[C@](N)([C@H](O)C(F)F)C3)cn2)cc1F

Reference: patent US20250171445A1, “DEUTERIUM-ENRICHED PIPERIDINYL-METHYL-PURINE AMINE SALTS, CRYSTALLINE FORMS, AND THEIR USE IN TREATING MEDICAL DISEASES AND CONDITIONS” (K36 Therapeutics, Inc., priority 2023, published 2025)
